Source: PMC4754331, “Programming of metabolic effects in C57BL/6JxFVB mice by in utero and lactational exposure to perfluorooctanoic acid” (Archives of Toxicology, 2015)
Several values for one entry are separate records, joined by “and”; a condition that tells them apart may be missing. Equal entries are not always repeated. Where two headings read alike, the source gives them in different places.

How the values were obtained:
F0 C57BL/6J mice = assay: Perinatal dietary exposure: general toxicity and reproduction parameters (litter size, sex ratio, survival); format: in vivo
Description: PFOA was obtained as sodium perfluoro-n-octanoate (PFOA-Na; CAS No. 335-95-5, purity >99 %) and kindly provided by Wellington Laboratories Inc., Ontario, Canada. PFOA-Na was dissolved in acetone and mixed with the diet (NIH-07, Research Diet Services, Wijk bij Duurstede, The Netherlands). Thereafter, acetone was allowed to evaporate, and this master mixture was serially diluted with a factor 3–3.3 by adding NIH-07, and afterward, the diet was pelleted. In this way, seven diet groups and a control NIH-07 (blank acetone was added) were obtained, aiming at concentrations of 0, 0.017, 0.056, 0.17, 0.56, 1.7, 5.6 and 17 mg/kg PFOA in feed, which corresponded to 0, 3, 10, 30, 100, 300, 1000 and 3000 µg/kg bw based on an average food consumption of 4.5 g per mouse (average body weight of 25 g) per day. PFOA concentrations in test diets were confirmed by isotope dilution liquid chromatography mass spectrometry after extraction with methanol (8402, JT Baker, Deventer the Netherlands) and a cleanup with carbon solid phase extraction (ENVI Carb, 57210-U, Supelco, Zwijndrecht, the Netherlands). Actual PFOA concentrations in the food were 15–30 % lower than the nominal values. The non-purified soy-based NIH-07 was chosen because it was originally designed to optimize gestation, lactation and growth of rodents, and avoiding natural phytoestrogens in the diet may have confounding effects (Ruhlen et al. [2008]). Estrogenic and anti-estrogenic activity for this diet was previously analyzed to be low and absent, respectively (van Esterik et al. [2014]).
Nulliparous female C57BL/6J mice (Charles River, Sulzfeld, Germany) were mated with male FVB mice (GPL, Bilthoven, The Netherlands) to produce hybrid offspring, for which comprehensive background information of phenotype and development is available (Dollé et al. [2011]). Mice were maintained under specific pathogen-free conditions with a target ambient temperature of 21 °C, humidity of 60 % and with a 12/12 h light/dark cycle. F0 males were single-housed in standard Macrolon type II cages and were fed standard laboratory chow (CRM, Tecnilab-BMI, Someren, The Netherlands). To avoid interference from environmental bisphenol A (van Esterik et al. [2014]), F0 females and their pups during lactation were housed in polysulfone cages (Tecnilab-BMI, Someren, The Netherlands), and drinking water was supplied in glass bottles with rubber stoppers. Cages had spruce/fir wood bedding (Lignocel S 8-15; Tecnilab-BMI, Someren, The Netherlands) and aspen wood shavings (Lignocel 9 S) for cage enrichment. Both feed and water were supplied ad libitum.
After an acclimatization period of 1 week, female F0 mice were fed experimental diets explained above starting 2 weeks before mating and continued during mating (1 week), gestation (3 weeks) and lactation (3 weeks). Each dose group had six F0 females, which were mated three by three with two F0 males for each dose group. […] For every dose group, on average 9 mice per sex (range 6–10) were included for follow-up through juvenile and adult stages, selecting pups proportionally from available litters. F1 males were single-housed, and F1 females were housed in pairs from the same litter in standard Macrolon type I cages. Body weight was measured at postnatal day (PND) 4, 7, 14 and 21 and weekly from 5 weeks of age continuing until the end of the study. Food consumption could not be recorded reliably due to high spillage.

C57BL/6JxFVB hybrid mice [1] = assay: White adipose tissue adipocyte size and number (perirenal fat pad); format: in vivo; settings: for White adipose tissue cell number: data not shown; for White adipose tissue adipocyte cell size: perirenal fat pad, 300 and 3000 combined
Description: (§1) Some measurements included only control and one or two dose groups and could therefore not be analyzed as dose–responses. GTT was therefore evaluated by repeated-measures or nested (to account for litter covariance) two-way ANOVAs (Graphpad Prism 5.0, R) to detect differences at the different time points and between the areas under the curve (AUC). Activity measurement, ucp1 expression, WAT adipocyte size and the proxy for cell number were also tested with a nested ANOVA (R). Differences in distribution of BAT histopathology scores between experimental groups were tested for statistical significance in a two-tailed Fisher’s exact test.

C57BL/6JxFVB hybrid mice [2] = assay: Glucose tolerance test; format: in vivo; settings: males and females; 300 µg/kg vs control; 19 weeks; data not shown
Description: (§2) One week later, at 20 weeks of age, an insulin tolerance test (ITT) was performed in the same animals as used for the GTT. Mice were not fasted to avoid low glucose baseline levels which, after an insulin injection, could lead to hypoglycemia. At the start of the experiment, a baseline blood sample was taken (0 min). […] The experiment was performed over two morning sessions, with 1.75 h between the first and last tested animal in each session, and animals were treated in a random order. At the age of 22–25 weeks, control and 300 µg/kg bw/d animals were used for a spontaneous locomotor activity test. After an acclimatization period of minimal 6 h, activity of the mice was continuously registered on four parallel platforms for 36 h (males) or 60 h (females), starting at the beginning of the dark phase (6.30 PM) of the first day.
as §1, with “Differences in distribution of BAT histopathology scores between experimental groups were tested for statistical significance in a two-tailed Fisher’s exact test.” left out

C57BL/6JxFVB hybrid mice [3] = assay: Insulin tolerance test; format: in vivo; settings: males and females; 300 µg/kg vs control; 20 weeks; data not shown
Description: as §2

C57BL/6JxFVB hybrid mice [4] = assay: Spontaneous locomotor activity test; format: in vivo; settings: males and females; 300 µg/kg vs control; data not shown
Description: as §2
as §1, with “Differences in distribution of BAT histopathology scores between experimental groups were tested for statistical significance in a two-tailed Fisher’s exact test.” left out

ucp1 = ucp1 gene expression in brown adipose tissue (qPCR); format: in vivo, mice; settings: males and females; 300 and 3000 µg/kg vs control; data not shown
Description: as §1

[5] = Tolerable daily intake and human dietary exposure; parameters: species or system humans
[6] = ref EFSA [2012]; EFSA [2008]; cited from earlier work
C57BL/6JxFVB hybrid mice [7] = assay: Body size, organ and fat pad weights at necropsy; settings: for Emax: Mus musculus

O=C(O)C(F)(F)C(F)(F)C(F)(F)C(F)(F)C(F)(F)C(F)(F)C(F)(F)F [PFOA, Perfluorooctanoic acid]
Sex ratio or survival of the F1 generation (F0 C57BL/6J mice; 3–3000 µg/kg bw/day): No effects | Litter size: BMD (CED) (F0 C57BL/6J mice; F0 dams exposed via diet 2 weeks before mating until PND21): 445 µg/kg bw/d | Litter size: CEDL (F0 C57BL/6J mice; Fig. 1, unit from legend): 299.1 µg/kg body weight/day | Litter size: CEDU (F0 C57BL/6J mice; Fig. 1, unit from legend): 873 µg/kg body weight/day | General toxicity in dams (survival, body weight, weight gain during gestation) (F0 C57BL/6J mice; dietary exposure 3–3000 µg/kg bw/day): no effect | White adipose tissue cell number (C57BL/6JxFVB hybrid mice [1]; females): did not differ | White adipose tissue adipocyte cell size (C57BL/6JxFVB hybrid mice [1]; females, p < 0.05): significantly decreased | White adipose tissue cell number (C57BL/6JxFVB hybrid mice [1]; males): no differences | White adipose tissue adipocyte cell size (C57BL/6JxFVB hybrid mice [1]; males): no differences | Glucose homeostasis: GTT (C57BL/6JxFVB hybrid mice [2]): did not show an effect | Glucose homeostasis: ITT (C57BL/6JxFVB hybrid mice [3]): did not show an effect | Energy expenditure: physical activity (C57BL/6JxFVB hybrid mice [4]): did not show an effect | ucp1 expression in brown adipose tissue (ucp1): did not show an effect | Factor by which the lowered TDI is higher than the human dietary exposure range in infants [5]: 15 | TDI when applying the developmental BMDL of 46 µg/kg bw/d [5]: 230 ng/kg bw/d | Tolerable daily intake (TDI) [6]: 1.5 µg/kg bw/d | Other relevant effects of PFOA (C57BL/6JxFVB hybrid mice [7]; C57BL/6JxFVB, 3-10-30-100-300-1000-3000 µg/kg bw/d, diet, 2w pre-mating-PND21, this study): F: ↓ fat pad weights; ↓ serum cholesterol; ↓ serum triglycerides | Perirenal fat pad weight: BMDL corrected for measured levels of PFOA in the feed (15–30 % lower than nominal) (C57BL/6JxFVB hybrid mice [7]; F1 females): 46–55 µg/kg bw/d and 46 µg/kg bw/d | Femur length: BMDL (C57BL/6JxFVB hybrid mice [7]; F1 females, CES 5 %): 2423 µg/kg bw/d | Femur length: BMDU (C57BL/6JxFVB hybrid mice [7]; F1 females, CES 5 %): 6999 µg/kg bw/d | Femur weight: BMDL (C57BL/6JxFVB hybrid mice [7]; F1 females, CES 5 %): 989 µg/kg bw/d | Femur weight: BMDU (C57BL/6JxFVB hybrid mice [7]; F1 females, CES 5 %): 5060 µg/kg bw/d | Perirenal fat pad weight: BMDL (C57BL/6JxFVB hybrid mice [7]; F1 females, CES 5 %): 65 µg/kg bw/d | Perirenal fat pad weight: BMDU (C57BL/6JxFVB hybrid mice [7]; F1 females, CES 5 %): 362 µg/kg bw/d | Quadriceps femoris muscle weight: BMDL (C57BL/6JxFVB hybrid mice [7]; F1 females, CES 5 %): 432 µg/kg bw/d | Quadriceps femoris muscle weight: BMDU (C57BL/6JxFVB hybrid mice [7]; F1 females, CES 5 %): 1356 µg/kg bw/d | Emax (C57BL/6JxFVB hybrid mice [7]; read-out: Femur length: max effect size, F1 females): -4.2% | Emax (C57BL/6JxFVB hybrid mice [7]; read-out: Femur weight: max effect size, F1 females): -8.6% | Emax (C57BL/6JxFVB hybrid mice [7]; read-out: Liver weight: max effect size, F1 males): 16% | Emax (C57BL/6JxFVB hybrid mice [7]; read-out: Perigonadal fat pad weight: max effect size, F1 females): -56% | Emax (C57BL/6JxFVB hybrid mice [7]; read-out: Perirenal fat pad weight: max effect size, F1 females): -57% | Emax (C57BL/6JxFVB hybrid mice [7]; read-out: Quadriceps femoris muscle weight: max effect size, F1 females): -19% | Emax (C57BL/6JxFVB hybrid mice [7]; read-out: Tibia length: max effect size, F1 females, exponential modeling only): -5% | Emax (C57BL/6JxFVB hybrid mice [7]; read-out: Tibia length: max effect size, F1 males): -1.6% | Developmental BMDL of 46 µg/kg bw/d: times lower than the BMDL10 of 300 µg/kg bw/d used for the TDI (C57BL/6JxFVB hybrid mice [7]; mouse, in vivo): 6.5 times
